# Experimental data taken from patent publication US8324258B2, “F1F0-ATPase inhibitors and related methods” (The Regents of the University of Michigan, priority 2007, dated 2012).
# How the values were obtained:
# [1] = system: Ramos cells; experiment: Cytotoxicity (cell death) in Ramos cells; format: cell-based
# Protocol: (§1) The compounds listed in Table 9 were tested for activity against F1F0-ATPase by measuring ATP synthesis and ATP hydrolysis. In addition, the compounds were assessed for cytotoxicity in Ramos cells Inhibition of ATP synthesis and hydrolysis by the F1F0-ATPase and cytotoxicity in Ramos cells was measured as described in K. M. Johnson et al. Chemistry & Biology 2005, 12, 485-496.
# [2] = molecular target: T1, F1F0-ATPase (Bos taurus, UniProt P13621); experiment: Inhibition of ATP synthesis by the F1F0-ATPase; format: biochemical; details: IC40: concentration for 40% inhibition
# Protocol: as §1
# [3] = molecular target: T1, F1F0-ATPase; experiment: Inhibition of ATP hydrolysis by the F1F0-ATPase; format: biochemical; details: IC40: concentration for 40% inhibition
# Protocol: as §1
Compound,EC50 ([1]; Ramos cells) [µM],ATP Synthesis (IC40 μM) [2] [µM],ATP Hydrolysis (IC40 μM) [3] [µM],"EC50 ([1]; Homo sapiens, Ramos) [µM]"
"N#Cc1ccc(C(=O)N=C(NCCc2c[nH]cn2)Nc2ccc(-c3ccccc3)cc2)cc1 [II-7, (Z/E)-N-((2-(1H-imidazol-4-yl)ethylamino)(biphenyl-4-ylamino)methylene)-4-cyanobenzamide]",> 30,>20,>10,
O=C(/N=C(/NCc1cccc2[nH]ccc12)Nc1ccc(-c2ccccc2)cc1)c1cccc(Cl)c1 [IV-9],,>20,>30,> 30
"O=C(N=C(NCCc1c[nH]cn1)Nc1cccc(-c2ccccc2)c1)c1cccc(F)c1 [VI-7, (Z/E)-N-((2-(1H-imidazol-4-yl)ethylamino)(biphenyl-3-ylamino)methylene)-3-fluorobenzamide]",> 10,<10,>10,
"O=C(N=C(NCCc1c[nH]cn1)Nc1ccc(-c2ccccc2)cc1)c1ccc(F)cc1 [II-9, (Z/E)-N-((2-(1H-imidazol-4-yl)ethylamino)(biphenyl-4-ylamino)methylene)-4-fluorobenzamide]",> 30,>20,>30,
"COc1cccc(-c2ccc(NC(=NC(=O)c3cccc(Cl)c3)NCCc3c[nH]cn3)cc2)c1 [III-34, (Z/E)-N-((2-(1H-imidazol-4-yl)ethylamino)(3′-methoxybiphenyl-4-ylamino)methylene)-3-chlorobenzamide]",< 10,<10,>10,
"COc1ccc(-c2ccc(NC(=NC(=O)c3cccc(Cl)c3)NCCc3c[nH]cn3)cc2)cc1 [III-35, (Z/E)-N-((2-(1H-imidazol-4-yl)ethylamino)(4′-methoxybiphenyl-4-ylamino)methylene)-3-chlorobenzamide]",< 10,<10,>10,
"O=C(N=C(NCCc1c[nH]cn1)Nc1ccc(-c2ccccc2)cc1)c1cccc([N+](=O)[O-])c1 [II-12, (Z/E)-N-((2-(1H-imidazol-4-yl)ethylamino)(biphenyl-4-ylamino)methylene)-3-nitrobenzamide]",> 30,>10,>10,
